Results on one molecule are retold here after patent US9744145B1, “Methods for treating lung cancer” (Macau University of Science and Technology, priority 2017, dated 2017).

For assay [1], the system named is PKM2 phosphorylation / AKT pathway in H1975 cells. The experiment in a line: Western blot analysis, H1975. In kind it is cell-based. On the procedure:
(§1) After incubation A549 and H1975 cells with formula I for 24 hours and 72 hours, A549 and H1975 cells were harvested and washed with cold 1×PBS. Then, cells were lysed with ice-cold RIPA lysis buffer with protease, and phosphatase inhibitors were added to extract the cell protein extraction. The supernatants were collected by centrifugation at 12,000 g, for 5 minutes. The quantitation of total protein extraction was measured by Bio-Rad DCTM protein assay kit (Bio-Rad, Philadelphia, Pa., USA). Then 30 μg of protein were loaded and electrophoretically separated on 8% SDS-PAGE gel and then transferred to Nitrocellulose (NC) membrane. Membranes were blocked with 5% non-fat milk and […] containing 0.1% Tween-20 (TBST) for 1 hour at room temperature. After 1 hour, membranes were incubated with primary anti-bodies (1:1000 dilution) against β-actin, total/phosphor-PKM2, total/phosphor-AKT, and BCL-2 at 4° C. with gently shaking overnight. Membranes were washed with TBST for 3 times (5 minutes/time), and incubated with secondary fluorescent antibody (1:10000 dilutions) for 1 hour at room temperature. Rewashing with TBST for 3 times (15 minutes/time), the stripes were visualized by LI-COR Odessy scanner (Belfast, Me., USA).

The test system of the next assay is H1975 cells. The experiment in a line: Apoptosis assay, Annexin V/PI flow cytometry, H1975. In kind it is cell-based. The settings on record: 24, 48 and 72 hours, vs control group. On the procedure:
(§2) A549 and H1975 cells (1×10^5 cells/well) were seeded in a well plate with 6 wells for 24 hours, and treated with the indicated concentrations of formula I for an additional 24 hours, 48 hours and 72 hours at 37° C. After indicated hours, the cells were washed by ice-cold 1×PBS once and harvested by trypsination. Then cells were centrifuged, collected, and resuspended in ice-cold 1×PBS. After removing the supernatants, cell pellets were re-suspended in 100 μL 1×Annexin-binding buffer. The cells were then double-stained with Annexin-V FITC and PI (100 μg/mL) of 2 μL respectively for 15 min at room temperature in dark. After that, 300 μL 1× Annexin-binding buffer was added. Apoptotic cells were quantitatively counted by a BD Aria III Flow Cytometer (BD Biosciences, San Jose, Calif., USA)
On the technique in general: Flow cytometry measures light scatter and fluorescence of single cells or particles in a stream.

In assay [2] the test system is PKM2 phosphorylation / AKT pathway in A549 cells. The experiment in a line: Western blot analysis, A549. It counts as cell-based. On the procedure: as §1
The test system of a further assay is A549 cells. Nature of the assay: Apoptosis assay, Annexin V/PI flow cytometry, A549. In kind it is cell-based. Particulars: 24, 48 and 72 hours, vs control group. The protocol: as §2
A further assay has as its target PKM2 enzyme (Homo sapiens, UniProt P14618). Nature of the assay: PKM2 enzyme activity assay (KINASE GLO Plus). In kind it is biochemical. On the procedure: 5. PKM2 Enzyme Activity Assay
PKM2 biochemical assay Compounds were pre-incubated with 2 nmol/L PKM2 enzyme in reaction buffer (50 mmol/L Tris-HCl, pH 8.0, 200 mmol/L KCl, 30 mmol/L MgCl2, 2 mmol/L dithiothreitol (DTT), 5% DMSO) for 30 minutes at room temperature. ADP and PEP were then added to final concentrations of […] and 15 mmol/L, respectively. After 30 minutes, ATP formation was measured by KINASE GLO® Plus from Promega, and Concentration at half-maximal activation (AC50) values were determined using Prism GraphPad Software.
PKM2 enzyme activity assay over the concentration of formula I was performed in KINASE GLO® Plus assay. The controls were conducted in the presence of 5% Dimethyl sulfoxide (DMSO) and normalized to 100%±SD. […] (n=3, **p<0.005, ***p<0.001). […] The maximum PKM2 enzyme activity was more than 200% compared to that in controls.
(In general: Kinase-Glo measures the ATP left after a reaction by luminescence.)

PKM2 enzyme, sequence (P14618 whole entry): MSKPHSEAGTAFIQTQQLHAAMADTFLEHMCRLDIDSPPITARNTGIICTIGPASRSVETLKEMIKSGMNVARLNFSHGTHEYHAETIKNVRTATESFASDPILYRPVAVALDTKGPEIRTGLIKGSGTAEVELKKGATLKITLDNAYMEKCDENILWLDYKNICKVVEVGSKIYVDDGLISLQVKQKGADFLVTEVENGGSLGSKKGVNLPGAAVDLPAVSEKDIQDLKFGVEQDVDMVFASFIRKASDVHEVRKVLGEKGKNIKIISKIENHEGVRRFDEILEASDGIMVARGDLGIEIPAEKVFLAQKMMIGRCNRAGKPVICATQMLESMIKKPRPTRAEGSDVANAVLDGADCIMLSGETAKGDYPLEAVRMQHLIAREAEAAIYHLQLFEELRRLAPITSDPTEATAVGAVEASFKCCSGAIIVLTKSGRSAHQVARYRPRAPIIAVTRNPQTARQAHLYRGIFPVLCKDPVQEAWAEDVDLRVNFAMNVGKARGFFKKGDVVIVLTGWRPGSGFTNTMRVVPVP

On to `O=S(=O)(Nc1ccccc1)c1ccc(-c2ccc(S(=O)(=O)Nc3ccccc3)cc2)cc1` [formula I], for which the AKT pathway entry in assay [1] and in assay [2] was “selectively inhibited AKT pathway” each time. For the same molecule, the PKM2 phosphorylation entry in assay [1] (β-actin loading control) and in assay [2] (β-actin loading control) was “activated phosphorylation of both PKM2 in a dose-dependent manner” each time. Besides, the apoptosis level entry in the assay with H1975 cells and in the assay with A549 cells was “induced significant level of apoptosis in a concentration-dependent manner” in each case. On PKM2 enzyme (2 nmol/L PKM2, KINASE GLO Plus, n=3, read-out: AC50 (concentration at half-maximal activation)), the AC50 was 5.5 ± 1 µM. Besides, on PKM2 enzyme (controls with 5% DMSO normalized to 100%), the “maximum PKM2 enzyme activity compared to controls” value was “more than 200%”.
